Laboratory results taken from US9018383B2, “Acylamino-substituted cyclic carboxylic acid derivatives and their use as pharmaceuticals” (Sanofi, priority 2009, dated 2015).

Biological target: human Edg-2 receptor (Homo sapiens, UniProt Q92633)
Experiment: Determination of Edg-2 receptor inhibition by FLIPR measurements (LPA-mediated calcium liberation)
Assay type: cell-based
Settings: CHO cells overexpressing human Edg-2 receptor, LPA 100 nM, fluo-4 calcium fluorescence; read-out: Inhibitory concentrations IC50 for inhibition of the Edg-2 receptor
In short: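 CHO cells stably overexpressing human Edg-2, loaded with fluo-4 AM, were pre-incubated ~5 min with compound (≤0.3% DMSO), then stimulated with 100 nM LPA 18:1 in HBSS/HEPES/probenecid, pH 7.5. Peak calcium fluorescence over ~3 min, baseline-corrected, versus DMSO gave % inhibition; IC50 from triplicates.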

Sequence of human Edg-2 receptor (Q92633 whole entry): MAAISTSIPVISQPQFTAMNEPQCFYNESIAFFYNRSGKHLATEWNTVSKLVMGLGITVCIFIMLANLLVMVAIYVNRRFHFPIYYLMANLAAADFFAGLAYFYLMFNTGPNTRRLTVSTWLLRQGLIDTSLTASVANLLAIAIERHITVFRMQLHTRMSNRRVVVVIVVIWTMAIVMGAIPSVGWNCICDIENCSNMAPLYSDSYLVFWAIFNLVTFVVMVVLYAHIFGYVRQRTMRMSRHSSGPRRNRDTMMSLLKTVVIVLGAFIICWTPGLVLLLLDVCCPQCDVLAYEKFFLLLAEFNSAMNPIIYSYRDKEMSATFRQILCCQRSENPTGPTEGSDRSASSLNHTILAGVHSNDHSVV

IC50	Compound
< 100 nM	COc1ccc(C(=O)N[C@]2(C(=O)O)CC[C@H](C)CC2)cc1OCCc1cccc(CCO)c1 [Example 109, cis-1-(3-{2-[3-(2-Hydroxy-ethyl)-phenyl]-ethoxy}-4-methoxy-benzoylamino)-4-methyl-cyclohexanecarboxylic acid]
< 100 nM	COc1ccc(C(=O)N[C@]2(C(=O)O)CC[C@@H](C)CC2)cc1OCCc1cccc(CCO)c1 [Example 110, trans-1-(3-{2-[3-(2-Hydroxy-ethyl)-phenyl]-ethoxy}-4-methoxy-benzoylamino)-4-methyl-cyclohexanecarboxylic acid]
< 100 nM	CC[C@H]1CC[C@](NC(=O)c2ccc(OC)c(OCCc3cccc(CCO)c3)c2)(C(=O)O)CC1 [Example 111, cis-4-Ethyl-1-(3-{2-[3-(2-hydroxy-ethyl)-phenyl]-ethoxy}-4-methoxy-benzoylamino)-cyclohexanecarboxylic acid]
100 to 1000 nM	COCCOc1ccc(C(=O)N[C@]2(C(=O)O)CC[C@H](C)CC2)cc1OCCc1cccc(Cl)c1 [Example 113, cis-1-[3-[2-(3-Chloro-phenyl)-ethoxy]-4-(2-methoxy-ethoxy)-benzoylamio]-4-methyl-cyclohexanecarboxylic acid]
1000 to 30000 nM	COCCOc1ccc(C(=O)N[C@]2(C(=O)O)CC[C@@H](C)CC2)cc1OCCc1cccc(C)c1 [Example 117, trans-1-[4-(2-Methoxy-ethoxy)-3-(2-m-tolyl-ethoxy)-benzoylamino]-4-methyl-cyclohexane-carboxylic acid]

More lines, now with the values behind:

Compound	IC50
COc1ccc(C(=O)NC2(C(=O)O)CCCCCC2)cc1OCCc1cccc(CCO)c1 [Example 107, 1-(3-{2-[3-(2-Hydroxy-ethyl)-phenyl]-ethoxy}-4-methoxy-benzoylamino)-cycloheptanecarboxylic acid]	< 100 nM
COc1ccc(C(=O)NC2(C(=O)O)CCCCCCC2)cc1OCCc1cccc(CCO)c1 [Example 108, 1-(3-{2-[3-(2-Hydroxy-ethyl)-phenyl]-ethoxy}-4-methoxy-benzoylamino)-cyclooctanecarboxylic acid]	< 100 nM
CC[C@H]1CC[C@@](NC(=O)c2ccc(OC)c(OCCc3cccc(CCO)c3)c2)(C(=O)O)CC1 [Example 112, trans-4-Ethyl-1-(3-{2-[3-(2-hydroxy-ethyl)-phenyl]-ethoxy}-4-methoxy-benzoylamino)-cyclohexanecarboxylic acid]	< 100 nM
COCCOc1ccc(C(=O)N[C@]2(C(=O)O)CC[C@@H](C)CC2)cc1OCCc1cccc(Cl)c1 [Example 114, trans-1-[3-[2-(3-Chloro-phenyl)-ethoxy]-4-(2-methoxy-ethoxy)-benzoylamino]-4-methyl-cyclohexanecarboxylic acid]	100 to 1000 nM
COCCOc1ccc(C(=O)NC2(C(=O)O)CCCCCC2)cc1OCCc1cccc(Cl)c1 [Example 115, 1-[3-[2-(3-Chloro-phenyl)-ethoxy]-4-(2-methoxy-ethoxy)-benzoylamino]-cycloheptanecarboxylic acid]	1000 to 30000 nM
COCCOc1ccc(C(=O)NC2(C(=O)O)CCCCCC2)cc1OCCc1cccc(C)c1 [Example 116, 1-[4-(2-Methoxy-ethoxy)-3-(2-m-tolyl-ethoxy)-benzoylamino]-cycloheptanecarboxylic acid]	1000 to 30000 nM
COCCOc1ccc(C(=O)N[C@]2(C(=O)O)CC[C@H](C)CC2)cc1OCCc1cccc(C)c1 [Example 118, cis-1-[4-(2-Methoxy-ethoxy)-3-(2-m-tolyl-ethoxy)-benzoylamino]-4-methyl-cyclohexane-carboxylic acid]	1000 to 30000 nM
C[C@H]1CC[C@](NC(=O)c2ccc(OCCO)c(OCCc3cccc(Cl)c3)c2)(C(=O)O)CC1 [Example 119, cis-1-[3-[2-(3-Chloro-phenyl)-ethoxy]-4-(2-hydroxy-ethoxy)-benzoylamino]-4-methyl-cyclohexanecarboxylic acid]	< 100 nM
